Measurements: patent US7445765B2, “Radiopharmaceutical for diagnostic imaging containing a technetium-99m nitride heterocomplex” (Nihon Medi-Physics Co., Ltd., priority 2000, dated 2008)

Test: Biodistribution of the 99mTc(N) heterocomplexes in rats (organ uptake, heart accumulation, heart/lung and heart/liver ratios)
Format: in vivo, female Sprague-Dawley rats
Settings: rats
Protocol: The biodistribution was measured by using female Sprague-Dawley rats (SD rats) weighing 200 g to 250 g. Each of the ^99mTc(N) heterocomplexes purified in the manner described above was diluted with phosphate buffer (0.1 M, pH=7.4) to obtain a final solution having an ethanol content of 10%. After the SD rats were anesthetized with an intramuscular injection of a mixture of ketamine (80 mg/kg) and xilazine (19 mg/kg), the jugular vein of each rat was surgically exposed and 100 μL (300 to 370 kBq) of the solution containing each ^99mTc(N) heterocomplexes prepared in the manner described above was injected in the jugular vein. The rats (n=3) were sacrificed by cervical dislocation at different times post injection. The blood was withdrawn from the heart through a syringe and counted. It was assumed that the whole blood content was 6.5% of the total body weight. The organs were excised from the rats, washed with physiological saline, weighed, and counted in a NaI well counter.
For comparison, Tables 19 and 20 show the results, obtained in the same manner as above, of measuring the biodistribution of (^99mTc) (MIBI) and (^99mTc) (Tf) which have been used as pharmaceuticals for diagnostic imaging for blood flow in myocardium.
Tables 21 to 23 show data showing the variations with time of heart accumulation, heart/lung ratios and heart/liver ratios for the ^99mTc(N) heterocomplexes of the present invention.

With [99Tc].[C-]#[N+]CC(C)(C)OC.[C-]#[N+]CC(C)(C)OC.[C-]#[N+]CC(C)(C)OC.[C-]#[N+]CC(C)(C)OC.[C-]#[N+]CC(C)(C)OC.[C-]#[N+]CC(C)(C)OC [(^99mTc) (MIBI), reference compound] the “Biodistribution, Adrenal glands” value (0 min) was 2.80 ± 0.17 % ID/g, the “Biodistribution, Blood” value (0 min) was 0.34 ± 0.07 % ID/g and the “Biodistribution, Brain” value (0 min) was 0.26 ± 0.01 % ID/g. The “Biodistribution, Heart” value (0 min) was 3.56 ± 0.22 % ID/g, the “Biodistribution, Intestine” value (0 min) was 3.55 ± 0.37 % ID/g and the “Biodistribution, Kidneys” value (0 min) was 9.23 ± 0.62 % ID/g. The “Biodistribution, Liver” value (0 min) was 1.36 ± 0.12 % ID/g, the “Biodistribution, Lungs” value (0 min) was 1.65 ± 0.08 % ID/g and the “Biodistribution, Muscle” value (0 min) was 0.24 ± 0.04 % ID/g. The “Biodistribution, Spleen” value (0 min) was 2.65 ± 0.26 % ID/g, the “Biodistribution, Submaxillary glands” value (0 min) was 1.43 ± 0.41 % ID/g and the “Biodistribution, Adrenal glands” value (2 min) was 1.60 ± 0.01 % ID/g. For the same compound, the “Biodistribution, Blood” value (2 min) was 0.11 ± 0.01 % ID/g, the “Biodistribution, Brain” value (2 min) was 0.04 ± 0.01 % ID/g and the “Biodistribution, Heart” value (2 min) was 3.25 ± 0.17 % ID/g. The “Biodistribution, Intestine” value (2 min) was 3.71 ± 0.01 % ID/g, the “Biodistribution, Kidneys” value (2 min) was 10.12 ± 0.15 % ID/g and the “Biodistribution, Liver” value (2 min) was 1.88 ± 0.08 % ID/g. For the same compound, the “Biodistribution, Lungs” value (2 min) was 1.18 ± 0.13 % ID/g, the “Biodistribution, Muscle” value (2 min) was 0.14 ± 0.00 % ID/g and the “Biodistribution, Spleen” value (2 min) was 2.76 ± 0.66 % ID/g. For the same compound, the “Biodistribution, Submaxillary glands” value (2 min) was 1.01 ± 0.23 % ID/g, the “Biodistribution, Adrenal glands” value (10 min) was 3.28 ± 0.39 % ID/g and the “Biodistribution, Blood” value (10 min) was 0.07 ± 0.01 % ID/g. For the same compound, the “Biodistribution, Brain” value (10 min) was 0.05 ± 0.01 % ID/g, the “Biodistribution, Heart” value (10 min) was 3.37 ± 0.45 % ID/g and the “Biodistribution, Intestine” value (10 min) was 5.40 ± 0.33 % ID/g. The “Biodistribution, Kidneys” value (10 min) was 11.45 ± 1.62 % ID/g, the “Biodistribution, Liver” value (10 min) was 2.21 ± 0.27 % ID/g and the “Biodistribution, Lungs” value (10 min) was 1.36 ± 0.31 % ID/g. The “Biodistribution, Muscle” value (10 min) was 0.18 ± 0.01 % ID/g, the “Biodistribution, Spleen” value (10 min) was 3.16 ± 0.62 % ID/g and the “Biodistribution, Submaxillary glands” value (10 min) was 1.12 ± 0.12 % ID/g. For the same compound, the “Biodistribution, Adrenal glands” value (20 min) was 3.05 ± 0.04 % ID/g, the “Biodistribution, Blood” value (20 min) was 0.05 ± 0.01 % ID/g and the “Biodistribution, Brain” value (20 min) was 0.04 ± 0.01 % ID/g. For the same compound, the “Biodistribution, Heart” value (20 min) was 3.16 ± 0.22 % ID/g, the “Biodistribution, Intestine” value (20 min) was 4.90 ± 0.23 % ID/g and the “Biodistribution, Kidneys” value (20 min) was 8.14 ± 1.30 % ID/g. The “Biodistribution, Liver” value (20 min) was 1.98 ± 0.60 % ID/g, the “Biodistribution, Lungs” value (20 min) was 0.99 ± 0.11 % ID/g and the “Biodistribution, Muscle” value (20 min) was 0.15 ± 0.05 % ID/g. The “Biodistribution, Spleen” value (20 min) was 2.11 ± 0.18 % ID/g, the “Biodistribution, Submaxillary glands” value (20 min) was 1.07 ± 0.04 % ID/g and the “Biodistribution, Adrenal glands” value (30 min) was 3.49 ± 0.67 % ID/g. For the same compound, the “Biodistribution, Blood” value (30 min) was 0.05 ± 0.01 % ID/g, the “Biodistribution, Brain” value (30 min) was 0.04 ± 0.02 % ID/g and the “Biodistribution, Heart” value (30 min) was 3.70 ± 0.04 % ID/g. The “Biodistribution, Intestine” value (30 min) was 5.42 ± 0.05 % ID/g, the “Biodistribution, Kidneys” value (30 min) was 6.46 ± 0.11 % ID/g and the “Biodistribution, Liver” value (30 min) was 1.37 ± 0.22 % ID/g. For the same compound, the “Biodistribution, Lungs” value (30 min) was 0.72 ± 0.01 % ID/g, the “Biodistribution, Muscle” value (30 min) was 0.17 ± 0.05 % ID/g and the “Biodistribution, Spleen” value (30 min) was 2.89 ± 0.29 % ID/g. The “Biodistribution, Submaxillary glands” value (30 min) was 1.08 ± 0.09 % ID/g, the “Biodistribution, Adrenal glands” value (60 min) was 3.50 ± 0.60 % ID/g and the “Biodistribution, Blood” value (60 min) was 0.03 ± 0.00 % ID/g. The “Biodistribution, Brain” value (60 min) was 0.04 ± 0.00 % ID/g, the “Biodistribution, Heart” value (60 min) was 3.18 ± 0.17 % ID/g and the “Biodistribution, Intestine” value (60 min) was 6.49 ± 1.43 % ID/g. The “Biodistribution, Kidneys” value (60 min) was 4.42 ± 0.11 % ID/g, the “Biodistribution, Liver” value (60 min) was 1.57 ± 0.11 % ID/g and the “Biodistribution, Lungs” value (60 min) was 0.47 ± 0.24 % ID/g. For the same compound, the “Biodistribution, Muscle” value (60 min) was 0.18 ± 0.01 % ID/g, the “Biodistribution, Spleen” value (60 min) was 1.88 ± 0.15 % ID/g and the “Biodistribution, Submaxillary glands” value (60 min) was 1.17 ± 0.05 % ID/g. For the same compound, the “Biodistribution, Adrenal glands” value (120 min) was 2.43 ± 0.13 % ID/g, the “Biodistribution, Blood” value (120 min) was 0.02 ± 0.00 % ID/g and the “Biodistribution, Brain” value (120 min) was 0.03 ± 0.00 % ID/g. For the same compound, the “Biodistribution, Heart” value (120 min) was 3.04 ± 0.14 % ID/g, the “Biodistribution, Intestine” value (120 min) was 4.15 ± 1.02 % ID/g and the “Biodistribution, Kidneys” value (120 min) was 3.49 ± 0.05 % ID/g. For the same compound, the “Biodistribution, Liver” value (120 min) was 1.02 ± 0.23 % ID/g, the “Biodistribution, Lungs” value (120 min) was 0.47 ± 0.06 % ID/g and the “Biodistribution, Muscle” value (120 min) was 0.28 ± 0.05 % ID/g. The “Biodistribution, Spleen” value (120 min) was 1.23 ± 0.18 % ID/g and the “Biodistribution, Submaxillary glands” value (120 min) was 1.19 ± 0.05 % ID/g.

For COCCC[P]1(CCCOC)CCN(CCOC)CC[P](CCCOC)(CCCOC)[99Tc+]12(#[N])[S]C(N(CCOC)CCOC)=[S]2 [[^99m−Tc(N) (PNP3) (DPODC)^+]], the Heart accumulation (0 min) was 3.08 ± 0.31 % ID/g, the “Heart/liver ratio in biodistribution” value (0 min) was 0.89 and the “Heart/lung ratio in biodistribution” value (0 min) was 2.12. For the same compound, the Heart accumulation (2 min) was 2.06 ± 0.13 % ID/g, the “Heart/liver ratio in biodistribution” value (2 min) was 0.56 and the “Heart/lung ratio in biodistribution” value (2 min) was 3.17. The Heart accumulation (10 min) was 2.37 ± 0.33 % ID/g, the “Heart/liver ratio in biodistribution” value (10 min) was 0.68 and the “Heart/lung ratio in biodistribution” value (10 min) was 3.54. For the same compound, the Heart accumulation (20 min) was 2.49 ± 0.31 % ID/g, the “Heart/liver ratio in biodistribution” value (20 min) was 1.34 and the “Heart/lung ratio in biodistribution” value (20 min) was 5.79. For the same compound, the Heart accumulation (30 min) was 2.57 ± 0.06 % ID/g, the “Heart/liver ratio in biodistribution” value (30 min) was 1.98 and the “Heart/lung ratio in biodistribution” value (30 min) was 6.27. The Heart accumulation (60 min) was 2.26 ± 0.06 % ID/g, the “Heart/liver ratio in biodistribution” value (60 min) was 5.38 and the “Heart/lung ratio in biodistribution” value (60 min) was 8.37. The Heart accumulation (120 min) was 2.45 ± 0.41 % ID/g, the “Heart/liver ratio in biodistribution” value (120 min) was 15.31 and the “Heart/lung ratio in biodistribution” value (120 min) was 12.25.

CCOCCN1CC[P](CCCOC)(CCCOC)[99Tc+]2(#[N])([S]C(N(CCOCC)CCOCC)=[S]2)[P](CCCOC)(CCCOC)CC1 [[^99m−Tc(N) (PNP5) (DBODC)^+]] showed a Heart accumulation (0 min) of 5.01 ± 0.16 % ID/g, a Heart accumulation (2 min) of 3.94 ± 0.32 % ID/g and a Heart accumulation (10 min) of 3.69 ± 0.29 % ID/g. The Heart accumulation (20 min) was 3.63 ± 0.46 % ID/g, the Heart accumulation (30 min) was 3.73 ± 0.48 % ID/g and the Heart accumulation (60 min) was 3.76 ± 0.39 % ID/g. For the same compound, the Heart accumulation (120 min) was 3.31 ± 0.06 % ID/g.
